Measured values taken from US20100113613A1, “CYCLOHEXANE POLYALCOHOL FORMULATION FOR TREATMENT OF DISORDERS OF PROTEIN AGGREGATION” (WARATAH PHARMACEUTICALS, priority 2006, published 2010).

How the values were obtained:
Aβ40 = target: T1, Aβ40 (Homo sapiens, UniProt P05067); test: TgCRND8 mice 2 month ad libitum treatment from 5 months: brain and plasma Aβ40 ELISA; assay type: in vivo; conditions: 2 month treatment ad libitum 10 mg/ml from 5 months of age
T1 construct: associated with reduced levels of insoluble Aβ40 and Aβ42 in the brain; from tissue; host or cells: brain homogenate (and plasma) of TgCRND8 transgenic mice
T1 sequence (P05067 672-711): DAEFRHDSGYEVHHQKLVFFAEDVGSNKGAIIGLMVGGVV

TgCRND8 mice = test: Morris Water Maze, TgCRND8 mice dosed 3 to 4 months, 3.3-30 mg/kg/day (Example 3); assay type: in vivo
Procedure: 8 mice were treated with scyllo-cyclohexanehexyl by oral gavage from 3 to 4 months. […] Animals were assessed at 4 months of age. Behavioural tests: Morris Water Maze testing was performed as previously described (Janus C, et al., 2000, Nature 408:979-982). After non-spatial pre-training, mice underwent place discrimination training for 5 days with 4-trials per day. Data were subjected to a repeated measures analysis of variance (ANOVA) with treatment (untreated, scyllo-cyclohexanehexyl) as the between subject factor. Cerebral plaque burden. Brains were removed and one hemisphere was fixed in 4% paraformaldehyde and embedded in paraffin wax in the mid sagittal plane. To generate sets of systematic uniform random sections, 5 μm serial sections were collected across the entire hemisphere. Sets of sections at 50 μm intervals were used for analyses (10-14 sections/set). Plaques were identified after antigen retrieval with formic acid, and incubation with primary anti-Aβ antibody (Dako M-0872), followed by secondary antibody (Dako StreptABCcomplex/horseradish kit). […] Aβ plaque burden was assessed with Leco IA-3001 image analysis software interfaced with Leica microscope and Hitachi KP-M1U CCD video camera. […] Vascular Aβ burden was defined as Aβ plaques originating from or surrounding blood vessels and was analysed similarly. […] The total swim path length to find the hidden platform is evaluated. […]

Row | Compound | Plasma Aβ levels Aβ40 (Aβ40) [pg/mL] | maximally efficacious dose level (TgCRND8 mice; Morris Water Maze, TgCRND8 mice aged 4 months, oral twice daily) [mg/kg/day] | swim path length (Morris Water Maze) after 5 days of assessment vs placebo (TgCRND8 mice; TgCRND8 mice treated 3 to 4 months, all dose levels, p=0.003, 0.008, 0.002 for 3.3, 10 and 30 mg/kg/day)
1 | OC1C(O)C(O)C(O)C(O)C1O (stereo not drawn) [AZD-103, scyllo-inositol] | 4507 ± 207 | – | –
2 | scyllo-inositol [AZD-103] | – | 3.3 | significantly shorter
